Source: patent US20240041038A1 (priority 2020, published 2024)
Bridges are numbered along the chain shown (N, C = ends). Where no end group is shown, it is not given here.

Assays:
[1] = test system: corn earworm (Helicoverpa zea); conditions: in vivo
[2] = test system: corn earworm (Helicoverpa zea); conditions: in vivo; remark: listed apart in the source
[3] = test system: lesser mealworm (Alphitobius diaperinus); assay: whole plant or invertebrate; conditions: 96 h, read-out: mortality rate
[4] = test system: beet armyworm (Spodoptera exigua); conditions: in vivo

`C/C=C(\C)C(=O)O[C@H]1C[C@@H](OC(C)=O)[C@@]2(C(=O)OC)CO[C@H]3[C@@H](O)[C@@](C)([C@]45O[C@@]4(C)[C@H]4C[C@@H]5O[C@@H]5OC=C[C@@]54O)[C@H]4[C@]1(CO[C@]4(O)C(=O)OC)[C@@H]32` [Azadirachtin] gave a mortality [1] of 37.5%.

With `O=C(NC(=O)c1c(F)cccc1F)Nc1ccc(OC(F)(F)C(F)OC(F)(F)F)c(Cl)c1` (centres unmarked) [Novaluron] the “greater than additive insecticidal effect when combined with U+2-ACTX-Hv1a” value [2] was “Novaluron*”.

Work on `OB(O)O` [boric acid] yielded a mortality at 2500 µg/mL [3] of 10.3%.

In the case of “GSCADINGACKSDCDCCGDSVTCDCYWSDSCKCRESNFKIGMAIRKKFC (disulfide 3-17, 10-23, 14-49, 16-33, 25-31) [Γ-CNTX-Pn1a]”, the mortality [4] is reported as 6% and the mortality rate [4] is reported as 3%.
